Measured values: US20070155771A1, “Methods and means for treating protein conformational disorders” (priority 2003, published 2007)

How the values were obtained:
[1] = tested on: COS-7 cells expressing an exon 1 fragment of the HD gene with 74 glutamines (Q74); experiment: Aggregate formation and abnormal cell nuclei in transiently transfected COS-7 cells expressing Q74; format: cell-based, African green monkey; conditions: for cell death (apoptotic nuclear morphology) in Q74-expressing cells / proportions of Q74-expressing cells with aggregates / appearance (size, number) of Q74 aggregates in cells with aggregates: 48 hours after transfection; for cell death (apoptotic nuclear morphology) in Q74-expressing cells: drug for 15 hours before fixing, same concentrations; for cell death (apoptotic nuclear morphology) in Q74-expressing cells / proportions of Q74-expressing cells with aggregates: vs untreated; for proportions of Q74-expressing cells with aggregates: drug for 15 hours before fixing: 10 mM 3-MA, 0.5 mM DMA, 200 nM BafA1, 0.2 μg/ml rapamycin, 10 μM epoxomicin, 10 μM lactacystin; for appearance (size, number) of Q74 aggregates in cells with aggregates: immunofluorescence, drug 15 hours
Excerpt: (§1) Mammalian expression vectors comprising EGFP (pEGFP-C1, Clontech) fused at its C-terminus with a Huntington's Disease gene exon 1 fragment with 74 polyglutamine repeats (Q74) or a polyalanine stretch of 19 repeats (A19) were used (Rankin, J. et al (2000) Biochem. J., 348, 15-19; Narain, Y. et al (1999) J. Med. Genet., 36, 739-746.). A Haemagglutinin-tagged Huntington's Disease gene exon 1 fragment with 74 polyglutamine repeats in pHM6 vector (Q74-HA) was also used. The PC12 stable lines expressing exon 1 of Huntington gene were as described in Wyttenbach A. et al., (2001) Hum. Mol. Genet. 10 1829-45.
(§2) African green monkey kidney cells (COS-7) were grown in Dulbecco's Modified Eagle Medium (DMEM, Sigma) supplemented with 10% Fetal Bovine Serum (FBS), 100 U/ml Penicillin/Streptomycin, 2 mM L-Glutamine and 1 mM Sodium Pyruvate at 37° C., 5% Carbon dioxide. The cells were grown on coverslips in six-well plates for immunofluorescence analysis, or were directly grown in six-well plates to 60-80% confluency for 24 hours for western blot analysis. Transfection was done using LipofectAMINE reagent (Invitrogen) using the manufacturer's protocol. The transfection mixture was replaced by normal culture medium after 5 hours incubation at 37° C. and the transfected cells were analysed by immunofluorescence or immunoblot 48 hours after transfection. The cells were left untreated or treated with 10 mM 3-methyl adenine (3-MA, Sigma), 0.5 mM N^6, N^6, Dimethyl adenosine (DMA, Sigma), 0.2 μg/ml Rapamycin (Sigma), 200 nM Bafilomycin A1 (BafA1, Sigma), 10 μM Lactacystin (Sigma) or 10 μM epoxomicin (Affinity research products ltd.) for 15 hours before fixation for immunofluorescence or processing for western blots. DMA, BafA1, epoxomicin and rapamycin were dissolved in DMSO and 3-MA and lactacystin were in water. Equal amounts of water or DMSO were added to the untreated controls, where relevant. The cells on coverslips were rinsed with 1×PBS, fixed with 4% paraformaldehyde in 1×PBS for 20 min and mounted in antifadent supplemented with 4′,6-diamidino-2-phenylindole (DAPI, 3 μg/ml, Sigma) to allow visualisation of nuclear morphology. The PC12 stable cells were maintained at 75 μg/ml hygromycin in standard medium consisting of high glucose DMEM (Sigma) with 100 U/ml penicillin/streptomycin, 2 mM L-glutamine (Invitrogen), 10% heat-inactivated horse serum (Invitrogen), 5% Tet-approved fetal bovine serum (FBS) (Clontech) and 100 μg/ml G418 (Invitrogen) at 37° C., 10% CO2. The cells were seeded at 1-2×10^5 per well in 6-well plates and were induced with 1 μg/ml doxycycline (Sigma) for 8 hours. The expression of transgenes was switched off by removing doxycycline from the medium. Cells were either left untreated or treated with 3-MA, BafA1, epoxomicin, lactacystin, rapamycin, 10 μg/ml cycloheximide (Sigma) or cycloheximide+rapamycin at the concentrations specified above for 24, 48 or 72 hours and the medium with the inhibitors/activator changed every 24 hours. The cells were then scraped off from the wells into 1.5 ml eppendorf tubes, pelleted at 8000 rpm and washed twice with 1×PBS. They were either fixed with 4% paraformaldehyde for 20 minutes and mounted in DAPI over coverslips on glass slides or processed for western blot analysis. CCI-779 was supplied by Wyeth Pharmaceuticals (Philadelphia). For tissue culture experiments, a stock solution of 1M in ethanol was prepared the day of experiment and was diluted in the appropriate medium
(§3) The pellets for westerns from COS-7 or PC12 cells were lysed on ice in Laemmli buffer (62.5 mM Tris-HCl pH6.8, 5% β-mercaptoethanol, 10% glycerol, and 0.01% bromophenol blue) for 30 min in the presence of protease inhibitors (Roche Diagnostics). The lysates were subjected to SDS-PAGE (10%) electrophoresis and proteins transferred onto nitrocellulose membrane (Amersham Pharmacia Biotech). […]

[2] = tested on: PC12 cell line expressing EGFP-tagged HD exon 1 with Q74; experiment: Turnover of Q74 protein and aggregates in stable doxycycline-inducible PC12 cells after switching expression off; format: cell-based, rat; conditions: for numbers of aggregate containing cells / visible aggregates: vs time-matched control; for aggregate formation as high molecular weight fraction on the stack (western blot): 72 hours after switching off the expression, vs time-matched untreated controls
Procedure: as §2
The pellets for westerns from COS-7 or PC12 cells were lysed on ice in Laemmli buffer (62.5 mM Tris-HCl pH6.8, 5% β-mercaptoethanol, 10% glycerol, and 0.01% bromophenol blue) for 30 min in the presence of protease inhibitors (Roche Diagnostics). The lysates were subjected to SDS-PAGE (10%) electrophoresis and proteins transferred onto nitrocellulose membrane (Amersham Pharmacia Biotech). The primary antibodies used include mouse monoclonal anti-GFP antibody (8362-1, Clontech) at 1:2000, rabbit monoclonal anti-actin antibody (A2066, Sigma) at 1:3000, mouse monoclonal anti-tubulin antibody (Clone DM 1A, Sigma) at 1:1000 and mouse monoclonal anti-HA antibody (Covance) at 1:1000. Blots were probed with Horse Radish Peroxidase (HRP) conjugated anti-mouse or anti-rabbit IgG (Bio Rad) at 1:2000. Bands were visualised using the ECL detection reagent (Amersham). […]

[3] = tested on: COS-7 cells expressing EGFP fused to 19 alanines (A19); experiment: Aggregate formation and abnormal cell nuclei in transiently transfected COS-7 cells expressing A19; format: cell-based, African green monkey; conditions: for cell death (abnormal nuclei) in A19-expressing cells / proportions of A19-expressing cells with aggregates / appearance (size, number) of A19 aggregates in cells with aggregates: 48 hours after transfection; for cell death (abnormal nuclei) in A19-expressing cells: drug for 15 hours before fixing, same concentrations; for cell death (abnormal nuclei) in A19-expressing cells / proportions of A19-expressing cells with aggregates: vs untreated; for proportions of A19-expressing cells with aggregates: drug for 15 hours before fixing: 10 mM 3-MA, 0.5 mM DMA, 200 nM BafA1, 0.2 μg/ml rapamycin, 10 μM epoxomicin; for appearance (size, number) of A19 aggregates in cells with aggregates: immunofluorescence, drug 15 hours
Excerpt: as §1, §2, §3

Cn1cnc(N)c2ncnc1-2 [3-MA, 3-methyl adenine]
cell death (apoptotic nuclear morphology) in Q74-expressing cells [1]: increase
proportions of Q74-expressing cells with aggregates [1]: increased
appearance (size, number) of Q74 aggregates in cells with aggregates [1]: increased their apparent size and number
levels of an HA-tagged version of the HD exon 1 fragment with Q74 ([1]; western blot, 10 mM 3-MA): increase
levels of the transgene protein (EGFP-Q74) ([1]; western blot, 10 mM 3-MA): increase
numbers of aggregate containing cells / visible aggregates ([2]; 8 h ON then 72 h OFF with drug): increased
aggregate formation as high molecular weight fraction on the stack (western blot) [2]: increased aggregate formation
cell death (abnormal nuclei) in A19-expressing cells [3]: increase
proportions of A19-expressing cells with aggregates [3]: increased
appearance (size, number) of A19 aggregates in cells with aggregates [3]: increased their apparent size and number
levels of the transgene protein (EGFP-A19) ([3]; western blot, 10 mM 3-MA): increase

CO/C1=C\C(C)=C\[C@@H](C)[C@@H](O)[C@@H](C)C/C(C)=C/C=C/[C@H](OC)[C@@H]([C@@H](C)[C@@H](O)[C@H](C)[C@@]2(O)C[C@@H](O)[C@H](C)[C@@H](C(C)C)O2)OC1=O [BafA1, Bafilomycin A1]
cell death (apoptotic nuclear morphology) in Q74-expressing cells [1]: increase
proportions of Q74-expressing cells with aggregates [1]: increased
appearance (size, number) of Q74 aggregates in cells with aggregates [1]: increased size
numbers of aggregate containing cells / visible aggregates ([2]; 8 h ON then 72 h OFF with drug): increased
aggregate formation as high molecular weight fraction on the stack (western blot) [2]: increased aggregate formation
cell death (abnormal nuclei) in A19-expressing cells [3]: increase
proportions of A19-expressing cells with aggregates [3]: increased
appearance (size, number) of A19 aggregates in cells with aggregates [3]: increased size

CC[C@H](C)[C@H](NC(=O)[C@H]([C@@H](C)CC)N(C)C(C)=O)C(=O)N[C@H](C(=O)N[C@@H](CC(C)C)C(=O)[C@@]1(C)CO1)[C@@H](C)O [epoxomicin]
cell death (apoptotic nuclear morphology) in Q74-expressing cells [1]: did not affect
proportions of Q74-expressing cells with aggregates [1]: did not affect
appearance (size, number) of Q74 aggregates in cells with aggregates [1]: more aggregates in each aggregate-containing cell
cellular fluorescence ([2]; 8 h ON then 48 h OFF with 10 μM epoxomicin): obvious increase
number of aggregate-containing cells ([2]; 8 h ON then 48 h OFF with 10 μM epoxomicin or 10 μM lactacystin, vs control): reduction
heat shock protein 70 ([2]; epoxomicin treatment): marked increase
proportions of A19-expressing cells with aggregates [3]: increase
appearance (size, number) of A19 aggregates in cells with aggregates [3]: more aggregates in each aggregate-containing cell

rapamycin
cell death (apoptotic nuclear morphology) in Q74-expressing cells [1]: no significant change
proportions of Q74-expressing cells with aggregates [1]: no significant change
cell fluorescence (EGFP-Q74 clearance) ([2]; 8 h ON then 72 h OFF with drug, 0.2 μg/ml rapamycin, 10 μg/ml cycloheximide): loss of fluorescence
Q74 protein levels on a western blot ([2]; 8 h ON, then OFF with 0.2 μg/ml rapamycin, vs untreated control): decrease
cell death (abnormal nuclei) in A19-expressing cells [3]: decrease
proportions of A19-expressing cells with aggregates [3]: decrease
